“Also recorded” adds a separate entry of the source.
What was measured:
[1] = test system: CD3/CD28-activated human T-cells; test: In vitro T-cell activity: interleukin-2 secretion by CD3/CD28-activated human T-cells; type: cell-based; settings: compound 0.1 nM, 16 to 20 hours
Description: A relative immunosuppressive property of the compound compared to authentic FK506 was determined using T-lymphocytes as described in Mo, S. J. et al. (J. Am. Chem. Soc. 2011, 133, 976-985). Simply, interleukin-2 secretions were quantified after treating the compound (0.1 nM) with CD3/CD28-activated human T-cells with the compounds for 16 to 20 hours.
A relative immunosuppressive property of 31-O-demethyl-FK506 compared to authentic FK506 was determined using the same method as Example 3. (1).

[2] = test system: rat pheochromocytoma cells (PC12); test: Nerve regeneration activity: neurite outgrowth in NGF-treated PC12 cells; type: cell-based; settings: 10 nM compound with NGF 10 ng/mL, 96 hours
Description: A relative nerve regeneration activity of the compound, compared to authentic FK506, was determined using rat pheochromocytoma cells (PC12) by the method described in Mo, S. J. et al. (J. Am. Chem. Soc. 2011, 133, 976-985). The PC12 cells were treated with nerve growth factor (NGF; KOMA Biotech; 10 ng/mL) which induces neurite outgrowth for 96 hours. 10 nM of FK506 or 9-deoxo-prolyl-FK506 was treated together or excluded. The neurite lengths were measured on photographic prints by the method Revill, W. P. et al. described (J. Pharmacol. Exp. Ther. 2002, 302, 1278-1285).
A relative neuroregenerative property of 31-O-demethyl-FK506 compared to authentic FK506 was determined using the same method as Example 3. (2).
A relative nerve regeneration property of 9-deoxo-31-O-demethyl-FK506 compared to authentic FK506 was determined using the same method as Example 3. (2).

Structure (SMILES)	interleukin-2 secretion (immunosuppressive activity) [1]	neurite outgrowth promotion (neurite length) [2]
C=CC[C@@H]1/C=C(\C)C[C@H](C)C[C@H](OC)[C@H]2O[C@@](O)(CC(=O)N3CCCC[C@H]3C(=O)O[C@H](/C(C)=C/[C@@H]3CC[C@@H](O)[C@H](O)C3)[C@H](C)[C@@H](O)CC1=O)[C@H](C)C[C@@H]2OC [9-deoxo-31-O-demethyl-FK506]	significantly increased to reach that of the normal group; also recorded: increased significantly to reach a normal level	excellent effect on neurite outgrowth promotion; also recorded: promotes neurite outgrowth in PC12 cells
C=CC[C@@H]1/C=C(\C)C[C@H](C)C[C@H](OC)[C@H]2O[C@@](O)(CC(=O)N3CCC[C@H]3C(=O)O[C@H](/C(C)=C/[C@@H]3CC[C@@H](O)[C@H](OC)C3)[C@H](C)[C@@H](O)CC1=O)[C@H](C)C[C@@H]2OC [9-deoxo-prolyl-FK506]	significantly increased to reach that of the normal group; also recorded: increased significantly to reach a normal level	excellent effect on neurite outgrowth promotion; also recorded: promotes neurite outgrowth in PC12 cells
C=CC[C@@H]1/C=C(\C)C[C@H](C)C[C@H](OC)[C@H]2O[C@@](O)(C(=O)C(=O)N3CCCC[C@H]3C(=O)O[C@H](/C(C)=C/[C@@H]3CC[C@@H](O)[C@H](O)C3)[C@H](C)[C@@H](O)CC1=O)[C@H](C)C[C@@H]2OC [31-O-demethyl-FK506]	significantly increased to reach that of the normal group; also recorded: increased significantly to reach a normal level	excellent effect on neurite outgrowth promotion; also recorded: promotes neurite outgrowth in PC12 cells
C=CC[C@@H]1/C=C(\C)C[C@H](C)C[C@H](OC)[C@H]2O[C@@](O)(C(=O)C(=O)N3CCCC[C@H]3C(=O)O[C@H](/C(C)=C/[C@@H]3CC[C@@H](O)[C@H](OC)C3)[C@H](C)[C@@H](O)CC1=O)[C@H](C)C[C@@H]2OC [FK506]	decreased as much as the number of CD3/CD28-inactivated human T-cells	–

Reference: patent publication US10576060B2, “FK506 derivative maintaining nerve regeneration activity without immunosuppressive activity, and use thereof” (INTRON BIOTECHNOLOGY CO., LTD, priority 2014, dated 2020)
